Patent US4851519A, “Pyrimidine derivatives” (Hoffmann-La Roche Inc., priority 1986, dated 1989)
pIC50: −log10 of the molar value.

Target: herpes simplex virus type 2 (HSV-2) thymidine kinase (Human herpesvirus 2, UniProt P04407)
Test: inhibition of herpes simplex virus type 2 (HSV-2) thymidine kinase in vitro
Assay type: biochemical
Conditions: not given
Protocol: In this test, the assay mixture contains […] Tris-HCl, pH 8, 5 mM magnesium chloride, 5 mM ATP, 0.3 μM ^3 H-thymidine (50 Ci/mmol), suitably diluted thymidine kinase extract and various concentrations of a compound of formula I or a tautomer thereof in a total volume of 100 μl. Assays are incubated at 37° C. for 30 minutes and the reaction is terminated by immersion in a boiling water bath for 2 minutes. 85 μl aliquots from each assay are then dried on to DEAE-cellulose paper discs and the unphosphorylated ^3 H-thymidine is removed by washing in 4 mM ammonium formate. The radioactivity remaining bound to the discs is then measured by scintillation spectrophotometry. The degree of inhibition at each concentration of compound of formula I or tautomer thereof is expressed as a percentage of the control reaction (100%) after substracting a measured blank value which represents the amount of radioactivity bound to the disc from a reaction containing heat inactivated enzymes. the IC50 value, namely, the concentration of compound of formula I or tautomer thereof which inhibits enzyme activity by 50%, is then calculated. The results obtained with representative compounds of formula I are complied in the following Table: […]

herpes simplex virus type 2 (HSV-2) thymidine kinase, sequence (P04407 whole entry): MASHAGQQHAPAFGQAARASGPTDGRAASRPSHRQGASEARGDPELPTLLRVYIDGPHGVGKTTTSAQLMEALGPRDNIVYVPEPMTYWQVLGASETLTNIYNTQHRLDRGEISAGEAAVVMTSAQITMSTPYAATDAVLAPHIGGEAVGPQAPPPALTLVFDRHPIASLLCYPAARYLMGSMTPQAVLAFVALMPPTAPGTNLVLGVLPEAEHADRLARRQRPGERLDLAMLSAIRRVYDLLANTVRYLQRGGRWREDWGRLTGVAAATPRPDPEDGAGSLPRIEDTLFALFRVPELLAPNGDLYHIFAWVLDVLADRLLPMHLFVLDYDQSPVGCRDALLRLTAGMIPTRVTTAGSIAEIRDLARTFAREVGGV

Question: `CCc1cn([C@H]2C[C@H](O)[C@@H](CNC(=O)Cc3c(Cl)cccc3Cl)O2)c(=O)[nH]c1=O` [Compound B, 5'-[2-(2,6-dichlorophenyl)acetamido]-2',5'-dideoxy-5-ethyluridine] was tested. Which pIC50 did it give?
Answer: 8.52

Same assay, conditions: HSV-2 thymidine kinase extract; 0.3 μM 3H-thymidine, 5 mM ATP, pH 8, 37° C., 30 minutes; read-out: IC50 (concentration which inhibits enzyme activity by 50%)

Question: `CCc1cn([C@H]2C[C@H](O)[C@@H](CNC(=O)C(C)Oc3ccc(Cl)cc3Cl)O2)c(=O)[nH]c1=O` (mixture of isomers) [Compound C, 5'-[2(RS)-(2,4-dichlorophenoxy)propionamido]-2',5'-dideoxy-5-ethyluridine] was tested. Which pIC50 did it give?
Answer: 8.43

Question: `CCc1cn([C@H]2C[C@H](O)[C@@H](CNC(=O)C(C)Oc3ccccc3-c3ccccc3)O2)c(=O)[nH]c1=O` (mixture of isomers) [Compound E, 2',5'-dideoxy-5-ethyl-5'-[2(RS)-(2-phenylphenoxy)propionamido]uridine] was tested. Which pIC50 did it give?
Answer: 8.30

Question: With `CCc1cn([C@@H]2O[C@H](CNC(=O)C(C)Oc3ccc(Cl)cc3Cl)[C@@H](O)[C@@H]2F)c(=O)[nH]c1=O` (mixture of isomers) [Compound F, 1-[5-[2-(RS)-(2,4-dichlorophenoxy)propionamido]-2,5-dideoxy-2-fluoro-β-D-arabinofuranosyl]-5-ethyluracil] as the molecule, how does the pIC50 read?
Answer: 8.40

Question: `CCc1cn([C@H]2C[C@H](O)[C@@H](CNC(=O)C(C)Oc3cc(Cl)c(Cl)cc3Cl)O2)c(=O)[nH]c1=O` (mixture of isomers) [Compound G, 5'-[2(RS)-(2,4,5-trichlorophenoxy)propionamido]-2',5'-dideoxy-5-ethyluridine] was tested. Which pIC50 did it give?
Answer: 8.89

Question: How did the pIC50 turn out when `CCc1cn([C@H]2C[C@H](O)[C@@H](CNC(=O)C(C)Oc3ccc(Cl)cc3[N+](=O)[O-])O2)c(=O)[nH]c1=O` (mixture of isomers) [Compound H, 5'-[2(RS)-(4-chloro-2-nitrophenoxy)propionamido]-2',5'-dideoxy-5-ethyluridine] was run?
Answer: 8.57

Question: With `CCc1cn([C@H]2C[C@H](O)[C@@H](CNC(=O)C(Oc3ccc(Cl)cc3Cl)c3ccccc3)O2)c(=O)[nH]c1=O` (mixture of isomers) [Compound I, 5'-[2(RS)-(2,4-dichlorophenoxy)-2-phenylacetamido]-2',5'-dideoxy-5-ethyluridine] as the molecule, how does the pIC50 read?
Answer: 8.33

Question: With `CCc1cn([C@H]2C[C@H](O)[C@@H](CNC(=O)C(C)Oc3cc(OC)c(Cl)cc3Cl)O2)c(=O)[nH]c1=O` (mixture of isomers) [Compound J, 5'-[2(RS)-(2,4-dichloro-5-methoxyphenoxy)propionamido]-2',5'-dideoxy-5-ethyluridine] as the molecule, how does the pIC50 read?
Answer: 8.92

Question: With `CCCc1cn([C@H]2C[C@H](O)[C@@H](CNC(=O)C(C)Oc3ccc(Cl)cc3Cl)O2)c(=O)[nH]c1=O` (mixture of isomers) [Compound K, 5'-[2(RS)-(2,4-dichlorophenoxy)propionamido]-2',5'-dideoxy-5-propyluridine] as the molecule, how does the pIC50 read?
Answer: 8.46

Question: With `CCc1cn([C@H]2C[C@H](O)[C@@H](CNC(=O)Cc3ccccc3Br)O2)c(=O)[nH]c1=O` [Compound A, 5'-[2-(2-bromophenyl)acetamido]-2',5'-dideoxy-5-ethyluridine] as the molecule, how does the pIC50 read?
Answer: 7.70

Question: How did the pIC50 turn out when `CCc1cn([C@H]2C[C@H](O)[C@@H](CNC(=O)Cc3ccc(-c4ccccc4)cc3)O2)c(=O)[nH]c1=O` [Compound D, 5'-[2-(4-biphenylyl)acetamido]-2',5'-dideoxy-5-ethyluridine] was run?
Answer: 7.15
